Tests used:
[1] = molecular target: T1, Dihydrofolate reductase (Rattus norvegicus, UniProt Q920D2)
T1 sequence (Q920D2 whole entry): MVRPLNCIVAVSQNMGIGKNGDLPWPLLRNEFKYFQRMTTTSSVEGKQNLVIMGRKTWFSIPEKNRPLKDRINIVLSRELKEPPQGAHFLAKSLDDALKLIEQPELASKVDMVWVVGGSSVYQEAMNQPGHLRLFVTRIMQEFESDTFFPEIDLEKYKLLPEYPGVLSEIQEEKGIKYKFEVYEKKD
Description: Inhibitory concentration for DHFR in rat liver

[2] = test system: CCRF-CEM; assay: Inhibitory activity against CCRF-CEM tumor cell growth in culture; format: functional, cell-based; conditions: Homo sapiens
[3] = test system: ACHN; assay: Inhibitory activity against kidney A-CHN tumor cell growth in culture; format: functional, cell-based; conditions: Homo sapiens
[4] = molecular target: Dihydrofolate reductase (Lactobacillus casei, UniProt P00381)
Dihydrofolate reductase (Lactobacillus casei, UniProt P00381), sequence (P00381 whole entry): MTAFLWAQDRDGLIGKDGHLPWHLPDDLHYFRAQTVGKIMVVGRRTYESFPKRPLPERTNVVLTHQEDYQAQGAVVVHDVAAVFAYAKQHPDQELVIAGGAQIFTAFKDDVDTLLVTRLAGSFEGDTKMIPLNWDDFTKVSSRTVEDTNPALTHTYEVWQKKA
Description: Inhibitory concentration for DHFR in Lactobacillus casei

[5] = molecular target: T2, Dihydrofolate reductase (Pneumocystis carinii, UniProt P16184); assay: Inhibitory concentration for DHFR in Pneumocystis carinii
T2 sequence (P16184 whole entry): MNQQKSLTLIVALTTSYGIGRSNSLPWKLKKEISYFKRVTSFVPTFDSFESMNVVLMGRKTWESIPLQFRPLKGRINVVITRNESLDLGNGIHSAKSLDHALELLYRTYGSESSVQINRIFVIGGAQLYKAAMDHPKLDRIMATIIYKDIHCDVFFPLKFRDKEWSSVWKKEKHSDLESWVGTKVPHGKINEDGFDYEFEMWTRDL

[6] = molecular target: T3, Bifunctional dihydrofolate reductase-thymidylate synthase (Toxoplasma gondii, UniProt Q07422)
T3 sequence (Q07422 whole entry): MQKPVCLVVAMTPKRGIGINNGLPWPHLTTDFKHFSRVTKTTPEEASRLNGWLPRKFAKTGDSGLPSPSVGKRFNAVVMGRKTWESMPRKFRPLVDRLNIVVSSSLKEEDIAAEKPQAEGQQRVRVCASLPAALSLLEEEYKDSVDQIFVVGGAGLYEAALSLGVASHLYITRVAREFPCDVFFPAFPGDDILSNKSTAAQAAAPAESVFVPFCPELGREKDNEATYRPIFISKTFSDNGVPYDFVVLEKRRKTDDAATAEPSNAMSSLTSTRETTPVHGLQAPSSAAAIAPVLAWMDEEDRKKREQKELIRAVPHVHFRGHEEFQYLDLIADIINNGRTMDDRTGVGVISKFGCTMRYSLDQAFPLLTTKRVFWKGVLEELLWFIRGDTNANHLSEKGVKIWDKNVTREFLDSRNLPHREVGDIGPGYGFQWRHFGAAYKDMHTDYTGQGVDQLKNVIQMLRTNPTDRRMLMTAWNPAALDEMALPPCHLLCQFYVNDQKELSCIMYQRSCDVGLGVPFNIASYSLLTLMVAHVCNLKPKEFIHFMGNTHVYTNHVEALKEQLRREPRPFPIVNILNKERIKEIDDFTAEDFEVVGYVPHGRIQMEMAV
Description: Inhibitory concentration for DHFR in Toxoplasma gondii

[7] = test system: SK-5; assay: Inhibitory activity against melanoma SK-5 tumor cell growth in culture; format: functional, cell-based; conditions: Homo sapiens
[8] = molecular target: T4, Dihydrofolate reductase (Homo sapiens, UniProt P00374); assay: Inhibitory concentration for DHFR in recombinant human
T4 sequence (P00374 whole entry): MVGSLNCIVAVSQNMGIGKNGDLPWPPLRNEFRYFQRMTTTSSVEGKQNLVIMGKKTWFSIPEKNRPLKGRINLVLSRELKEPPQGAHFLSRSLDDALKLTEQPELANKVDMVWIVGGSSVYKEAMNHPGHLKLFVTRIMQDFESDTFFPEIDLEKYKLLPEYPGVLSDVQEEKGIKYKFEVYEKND

[9] = test system: FaDu; assay: Protection of FaDu cells from growth inhibitory effects of compound by 50 uM hypoxanthine (Hx); format: functional, Homo sapiens; design: scale not given: the % may be the effect or the level left
[10] = test system: FaDu; assay: Protection of FaDu cells from growth inhibitory effects of compound by 10 uM leucovorin (LV); format: functional, Homo sapiens; design: scale not given: the % may be the effect or the level left
[11] = test system: FaDu; assay: Protection of FaDu cells from growth inhibitory effects of compound by combination of 50 uM hypoxanthine (Hx) and 40 uM thymidine (TdR); format: functional, Homo sapiens; design: scale not given: the % may be the effect or the level left
[12] = test system: FaDu; assay: Protection of FaDu cells from growth inhibitory effects of compound by 40 uM thymidine (TdR); format: functional, Homo sapiens; design: scale not given: the % may be the effect or the level left
[13] = test system: R30dm-CCRF-CEM; assay: the growth inhibition of, (during continuous exposure) methotrexate resistant human T-lymphoblastic leukemia cell subline R30dm at resistance mechanism - decreased FPGS; format: functional, cell-based
[14] = test system: FaDu; assay: Protection of FaDu cells from growth inhibitory effects of compound with no addition; format: functional, Homo sapiens; design: scale not given: the % may be the effect or the level left
[15] = test system: FaDu; assay: the growth inhibition of, (during continuous exposure) human squamous cell carcinoma FaDu at resistance mechanism - sensitive
[16] = species on record: Homo sapiens; assay: (§1) Activity is determined as substrate for CCRF-CEM human leukemia cell folyl-poly-glutamate synthetase; format: ADME
[17] = test system: folylpolyglutamate synthetase (FPGS); assay: as §1; format: ADME; conditions: folylpolyglutamate synthetase from CCRF-CEM leukemia cells
[18] = test system: NCI-H460; assay: Growth inhibitory concentration against tumor cells in culture non-small-cell-lung NCI-H460; format: functional, Homo sapiens
[19] = test system: MCF7; assay: Growth inhibitory concentration against tumor cells in culture breast cancer cell line, MCF-7; format: functional, Homo sapiens
[20] = test system: SF-268; assay: Growth inhibitory concentration against tumor cells in culture CNS cancer cell line, SF-268; format: functional, Homo sapiens
[21] = molecular target: Thymidylate synthase (Lactobacillus casei, UniProt P00469); assay: Inhibitory concentration for TS in Lactobacillus casei; design: species or system Lacticaseibacillus casei
Thymidylate synthase (Lactobacillus casei, UniProt P00469), sequence (P00469 whole entry): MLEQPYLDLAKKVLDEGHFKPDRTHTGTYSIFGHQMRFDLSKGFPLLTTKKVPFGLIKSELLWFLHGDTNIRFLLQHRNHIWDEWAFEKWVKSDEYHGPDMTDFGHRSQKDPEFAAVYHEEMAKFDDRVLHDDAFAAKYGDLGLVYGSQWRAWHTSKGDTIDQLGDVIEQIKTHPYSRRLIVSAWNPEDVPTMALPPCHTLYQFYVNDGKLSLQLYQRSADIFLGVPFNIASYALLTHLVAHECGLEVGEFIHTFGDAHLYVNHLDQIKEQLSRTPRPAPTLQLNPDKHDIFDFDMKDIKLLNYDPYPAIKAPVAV

[22] = test system: MDA-MB-435; assay: Growth inhibitory concentration against tumor cells in culture breast cancer cell line, MDA-MB-435; format: functional, Homo sapiens
[23] = test system: R30dm-CCRF-CEM; assay: Growth inhibition of methotrexate resistant human T-lymphoblastic leukemia cell subline R30dm; format: functional, cell-based
[24] = test system: LOX IMVI; assay: Growth inhibitory concentration against tumor cells in culture melanoma LOX-IMVI; format: functional, Homo sapiens
[25] = test system: U-251; assay: Growth inhibitory concentration against tumor cells in cultureCNS cancer cell line, U-251; format: functional, Homo sapiens
[26] = test system: CCRF-CEM; assay: Growth inhibition of human T-lymphoblastic leukemia cell line CCRF-CEM; format: functional, cell-based
[27] = test system: CCRF-CEM; assay: Growth inhibition of methotrexate resistant human T-lymphoblastic leukemia cell subline CEM/MTX; format: functional, cell-based
[28] = test system: IGROV-1; assay: Growth inhibitory concentration against tumor cells in culture ovarian cancer IGROV-1; format: functional, Homo sapiens
[29] = test system: MDA-N; assay: Growth inhibitory concentration against tumor cells in culture breast cancer cell line, MDA-N; format: functional, Homo sapiens
[30] = test system: PC-3; assay: Growth inhibitory concentration against tumor cells in culture prostate cancer PC-3; format: functional, Homo sapiens
[31] = test system: HL-60; assay: Growth inhibitory concentration against tumor cells in culture leukemia cell line, HL-60(TB); format: functional, Homo sapiens
[32] = test system: 786-0; assay: Growth inhibitory concentration against tumor cells in culture renal cancer […] cell line; format: functional, Homo sapiens
[33] = test system: K562; assay: Growth inhibitory concentration against tumor cells in culture leukemia cell line, K-562; format: functional, Homo sapiens
[34] = molecular target: Thymidylate synthase (Homo sapiens, UniProt P04818); assay: Inhibitory concentration for TS in human
Thymidylate synthase (Homo sapiens, UniProt P04818), sequence (P04818 whole entry): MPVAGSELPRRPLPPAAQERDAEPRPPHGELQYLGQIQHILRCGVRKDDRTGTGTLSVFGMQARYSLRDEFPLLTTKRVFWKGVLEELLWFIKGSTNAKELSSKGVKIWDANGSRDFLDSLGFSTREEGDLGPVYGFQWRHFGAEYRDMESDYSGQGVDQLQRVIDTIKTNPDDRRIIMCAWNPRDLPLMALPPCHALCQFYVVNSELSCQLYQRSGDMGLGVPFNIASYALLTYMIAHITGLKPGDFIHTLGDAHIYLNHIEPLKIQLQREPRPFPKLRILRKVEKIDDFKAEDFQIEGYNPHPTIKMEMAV

[35] = test system: FaDu; assay: Growth inhibition of human squamous cell carcinoma FaDu; format: functional, cell-based
[36] = test system: HCT-116; assay: Growth inhibitory concentration against tumor cells in culture colon cancer HCT116; format: functional, Homo sapiens

| SMILES | IC50 [1] [µM] | IC50 [2] [µM] | IC50 [3] [µM] | IC50 [4] [µM] | IC50 [5] [µM] | IC50 [6] [µM] | IC50 [7] [µM] | IC50 [8] [µM] | Control [9] [%] | Control [10] [%] | Control [11] [%] | Control [12] [%] | Control [14] [%] | Vmax [16] [rel] | Km [17] [µM] | also measured |
| --- | --- | --- | --- | --- | --- | --- | --- | --- | --- | --- | --- | --- | --- | --- | --- | --- |
| COc1ccc(OC)c(NCc2coc3nc(N)nc(N)c23)c1 | > 21 | 132 | > 160 | > 31 | > 21 | > 21 | > 160 | > 15 | – | – | – | – | – | – | – | – |
| Nc1nc(N)c2c(CNc3cc(Cl)c(Cl)c(Cl)c3)coc2n1 | 25.6 | 10.6 | 40.9 | > 25 | 8.3 | > 3.9 | 47.6 | > 25 | – | – | – | – | – | – | – | – |
| Nc1nc(N)c2c(CNc3ccc(Cl)c(Cl)c3)coc2n1 | 35.2 | 40.9 | > 150 | > 3 | > 35 | – | > 150 | > 15 | – | – | – | – | – | – | – | – |
| CN(Cc1cnc2nc(N)nc(N)c2n1)c1ccc(C(=O)N[C@@H](CCC(=O)O)C(=O)O)cc1 [METHOTREXATE] | – | – | – | – | – | – | – | – | 11 | 114 | 98 | 7.3 | 2.5 | – | – | EC50 [13]: 0.018 µM; EC50 [15]: 0.019 µM |
| Nc1nc(N)c2nc(CNc3ccc(C(=O)N[C@@H](CCC(=O)O)C(=O)O)cc3)cnc2n1 [AMINOPTERIN] | – | – | – | – | – | – | – | – | – | – | – | – | – | 1 | 6.8 | – |
| COc1cc(NCc2coc3nc(N)nc(N)c23)cc(OC)c1OC | > 37 | 111 | > 130 | > 26 | > 4 | 4 | > 130 | > 26 | – | – | – | – | – | – | – | – |
| CN(Cc1coc2nc(N)nc(N)c12)c1ccc(C(=O)NC(CCC(=O)O)C(=O)O)cc1 (configuration not stated) | 0.43 | 0.043 | 0.837 | 0.22 | 0.035 | 19.8 | 14 | – | 1.9 | 106 | 80 | 17.1 | 6.6 | 0.75 | 4.65 | IG50 [18]: 0.15 µM; IG50 [19]: 0.08 µM; IG50 [20]: 0.59 µM; IC50 [21]: > 200 µM; IG50 [22]: 0.09 µM; EC50 [23]: 1.03 µM; IG50 [24]: 0.04 µM; IG50 [25]: 0.75 µM; EC50 [26]: 0.047 µM; EC50 [27]: 2.27 µM; IG50 [28]: 0.73 µM; IG50 [29]: 0.065 µM; IG50 [30]: <0.01 µM; IG50 [31]: <0.01 µM; IG50 [32]: 0.07 µM; IG50 [33]: 0.024 µM; IC50 [34]: > 200 µM; EC50 [35]: 0.055 µM; IG50 [36]: 0.02 µM |
| Nc1nc(N)c2c(CNc3ccc(C(=O)NC(CCC(=O)O)C(=O)O)cc3)coc2n1 (configuration not stated) | 1.3 | 0.59 | > 100 | 0.56 | 0.9 | 0.7 | > 100 | 0.45 | 4.5 | 110 | 82 | 18.4 | 4.9 | 0.45 | 1.9 | IG50 [18]: 3.75 µM; IG50 [19]: 6.31 µM; IG50 [20]: 1.77 µM; IC50 [21]: > 200 µM; IG50 [22]: 45.8 µM; EC50 [23]: 0.663 µM; IG50 [24]: 1.23 µM; IG50 [25]: 1.97 µM; EC50 [26]: 0.142 µM; EC50 [27]: 3.17 µM; IG50 [28]: >100 µM; IG50 [29]: 1.73 µM; IG50 [30]: 0.7 µM; IG50 [31]: 0.02 µM; IG50 [32]: 0.91 µM; IG50 [33]: 0.06 µM; IC50 [34]: > 200 µM; EC50 [35]: 0.126 µM; IG50 [36]: 0.09 µM |
